Measurements as given in patent US7264314B2, “Adrenocorticotropic hormone analogs and related methods” (priority 2004, dated 2007).
No end group written: not given here.

System: ACTH-induced serum corticosterone in dexamethasone-suppressed mice
Assay: in vivo Serum Corticosteroid Inhibition Assay
Design: species or system FVB/N mice
Conditions: for reduction in serum corticosterone levels: ACTH alone = 100%; for serum corticosterone level at 180 minutes: blood one hour later; for corticosterone induction as percent of that of wildtype ACTH: 1 hour after last injection
Text: An in vivo Serum Corticosteroid Inhibition Assay measures the level of corticosteroid or corticosterone in the blood stream of a subject after administering a compound having a first corticosteroid-producing biological activity and a test compound. The compound having the corticosteroid-producing biological activity can be any compound known to induce a detectable increase in corticosteroid production. The test compound can be administered before the corticosteroid-producing compound, in combination with the corticosteroid-producing compound, and/or after the corticosteroid-producing compound. The corticosteroid-producing compound is preferably ACTH, but can also be an ACTH analog with a known corticosteroid-producing biological activity. By performing a series of in vivo Serum Corticosteroid Inhibition Assays using ACTH analog test compounds, ACTH analogs that inhibit the production of corticosteroid relative to the corticosteroid-producing compound used can be identified. Preferably, the ACTH analogs identified in this manner inhibit the production of corticosteroid in the presence of endogenous unmodified ACTH.
The in vivo Serum Corticosteroid Inhibition Assay can include sequential administration of the test compound and the corticosteroid-producing compound by the following steps: first, an agent to suppress endogenous ACTH production was administered to a mouse subject, such as an intraperitoneal injection of dexamethasone; second, after waiting a suitable period of time for suppression of endogenous ACTH production (e.g., 1.5–2.0 hours), a test compound was administered to the mouse by a suitable method, such as intraperitoneal injection; third, after waiting a suitable period of time (e.g., 1 hour) for action of the test compound, a compound with corticosteroid-producing activity can be administered to the mouse by a suitable method, such as intraperitoneal injection; and fourth, after waiting a suitable period of time for the biological activity of both administered compounds to occur (e.g., 1 hour), a blood sample was taken from the subject and the level of serum corticosterone was determined by a suitable method, such as a competitive radioimmunoassay using ^125I RIA kit (ICN, Costa Mesa, Calif.). Optionally, steps two and three can be reversed (administering the corticosteroid-producing compound first, followed by administration of the test compound). The in vivo Serum Corticosteroid Inhibition Assay can also include co-administration of the test compound and the corticosteroid-producing compound by the following steps: first, an agent to suppress endogenous ACTH production was administered to a mouse subject, such as an intraperitoneal injection of dexamethasone; second, after waiting a suitable period of time for suppression of endogenous ACTH production (e.g., 1.5–2.0 hours), the corticosteroid-producing compound and a test compound were co-administered to the mouse by a suitable method, such as intraperitoneal injection; and third, after waiting a suitable period of time for the biological activity of both administered compounds to occur (e.g., 1 hour), a blood sample was taken from the subject and the level of serum corticosterone was determined by a suitable method, such as a competitive radioimmunoassay using ^125I RIA kit (ICN, Costa Mesa, Calif.). Also, in some embodiments, the first step in any in vivo Serum Corticosteroid Inhibition Assay can be replaced by a measurement of the initial endogenous corticosteroid or corticosteroid level in the blood of the subject in the manner of step four, instead of administering the agent to suppress ACTH production. Example 2 describes murine in vivo Serum Corticosteroid Inhibition Assays in detail.
A series of separate in vivo Serum Corticosteroid Inhibition Assays were performed to identify ACTH analogs that inhibit ACTH adrenal hormone production in vivo. […]

N-Ser^1-Tyr-Ser-Met-Glu^5-His-Phe-Arg-Trp-Gly^10-Lys-Pro-Val-Gly-Lys^15-Arg-Ala-Ala-Trp-Val^20-Lys-Val-Tyr-Pro-Ac (SYSMEHFRWGKPVGKRAAWVKVYP; not fully specified (C-terminus); printed as N-Ser1-Tyr-Ser-Met-Glu5-His-Phe-Arg-Trp-Gly10-Lys-Pro-Val-Gly-Lys15-Arg-Ala-Ala-Trp-Val20-Lys-Val-Tyr-Pro-Ac) [AT814]
reduction in serum corticosterone levels (ACTH analog 30 minutes before ACTH): ~65% | serum corticosterone level at 180 minutes (ACTH analog at 90 minutes, mACTH(1–24) at 120 minutes after dexamethasone, listed as (KKRRP15-19KRAAW) mACTH(1–24)): 175 ± 27 ng/mL | serum corticosterone level at 180 minutes (ACTH analog at 90 minutes, mACTH(1–24) at 120 minutes after dexamethasone, listed as (KKRRP15-19KRMW) mACTH(1–24)): 175 ± 27 ng/mL | reduction in serum corticosterone levels (ACTH analog concurrently with ACTH): ~90% | serum corticosterone level at 180 minutes (ACTH analog together with mACTH(1–24) at 120 minutes after dexamethasone): 51 ± 8 ng/mL | serum corticosterone level at 180 minutes (ACTH analog together with mACTH(1–24) at 120 minutes after dexamethasone, listed as (KKRRP15-19KRAAW) mACTH(1–24)): 51 ± 8 ng/mL | corticosterone induction as percent of that of wildtype ACTH (applied 30 minutes before the ACTH injection): 35% | corticosterone induction as percent of that of wildtype ACTH (applied at the same time as the ACTH injection): 10%
